Results: the supplement of paper PMC10307832

What was measured:
Test in all cases: relative viability (nuclei count vs DMSO), 5 days (fraction); higher = more cells survive
ABC-1 = tested on: ABC-1
Method in brief: (§1)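 Relative viability was taken as the ratio of nuclei in treated wells to nuclei in vehicle wells. Lung cancer cell lines in 1536-well plates received compounds by pin tool one day after seeding, either one drug alone or a fixed anchor-drug dose plus five library-drug doses (not always all listed) in √10 steps. Nuclei were counted on 4× images after 5 days of treatment, and values are medians of duplicate plates.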

EKVX = tested on: EKVX
Method in brief: as §1

EPLC-272H = tested on: EPLC-272H
Method in brief: as §1

NCI-H1975 = tested on: NCI-H1975
Method in brief: as §1

NCI-H1651 = tested on: NCI-H1651
Method in brief: as §1

NCI-H522 = tested on: NCI-H522
Method in brief: as §1

HCC-827 = tested on: HCC-827
Method in brief: as §1

H3255 = tested on: H3255
Method in brief: as §1

NCI-H520 = tested on: NCI-H520
Method in brief: as §1

NCI-H2087 = tested on: NCI-H2087
Method in brief: as §1

NCI-H358 = tested on: NCI-H358
Method in brief: as §1

COR-L 105 = tested on: COR-L 105
Method in brief: as §1

NCI-H661 = tested on: NCI-H661
Method in brief: as §1

NCI-H1792 = tested on: NCI-H1792
Method in brief: as §1

NCI-H838 = tested on: NCI-H838
Method in brief: as §1

NCI-H647 = tested on: NCI-H647
Method in brief: as §1

HCC-44 = tested on: HCC-44
Method in brief: as §1

LCLC-103H = tested on: LCLC-103H
Method in brief: as §1

201T = tested on: 201T
Method in brief: as §1

UMC-11 = tested on: UMC-11
Method in brief: as §1

NCI-H1437 = tested on: NCI-H1437
Method in brief: as §1

NCI-H727 = tested on: NCI-H727
Method in brief: as §1

COR-L23 = tested on: COR-L23
Method in brief: as §1

NCI-H1650 = tested on: NCI-H1650
Method in brief: as §1

HCC-15 = tested on: HCC-15
Method in brief: as §1

CCCCCCCCCCCC1=C(O)C(=O)C=C(O)C1=O [Embelin] + O=C(c1cc(Cc2n[nH]c(=O)c3ccccc23)ccc1F)N1CCN(C(=O)C2CC2)CC1 [Olaparib] (partner 8 µM)
relative viability (ABC-1; first compound 0.08 µM): 0.847
relative viability (ABC-1; first compound 0.8 µM): 0.988
relative viability (ABC-1; first compound 2.53 µM): 0.805
relative viability (ABC-1; first compound 8 µM): 0.871
relative viability (EKVX; first compound 0.08 µM): 0.816
relative viability (EKVX; first compound 0.8 µM): 0.856
relative viability (EKVX; first compound 2.53 µM): 0.984
relative viability (EKVX; first compound 8 µM): 0.897
relative viability (EPLC-272H; first compound 0.08 µM): 0.845
relative viability (EPLC-272H; first compound 0.8 µM): 0.924
relative viability (EPLC-272H; first compound 2.53 µM): 0.752
relative viability (EPLC-272H; first compound 8 µM): 1.14
relative viability (NCI-H1975; first compound 0.08 µM): 0.887
relative viability (NCI-H1975; first compound 0.8 µM): 0.779
relative viability (NCI-H1975; first compound 2.53 µM): 0.932
relative viability (NCI-H1975; first compound 8 µM): 0.904
relative viability (NCI-H1651; first compound 0.08 µM): 0.201
relative viability (NCI-H1651; first compound 0.8 µM): 0.166
relative viability (NCI-H1651; first compound 2.53 µM): 0.166
relative viability (NCI-H1651; first compound 8 µM): 0.191
relative viability (NCI-H522; first compound 0.08 µM): 0.674
relative viability (NCI-H522; first compound 0.8 µM): 0.633
relative viability (NCI-H522; first compound 2.53 µM): 0.689
relative viability (NCI-H522; first compound 8 µM): 0.945
relative viability (HCC-827; first compound 0.08 µM): 0.634
relative viability (HCC-827; first compound 0.8 µM): 0.648
relative viability (HCC-827; first compound 2.53 µM): 0.701
relative viability (HCC-827; first compound 8 µM): 0.715
relative viability (H3255; first compound 0.08 µM): 0.561
relative viability (H3255; first compound 0.8 µM): 0.614
relative viability (H3255; first compound 2.53 µM): 0.59
relative viability (H3255; first compound 8 µM): 0.546
relative viability (NCI-H520; first compound 0.08 µM): 0.39
relative viability (NCI-H520; first compound 0.8 µM): 0.327
relative viability (NCI-H520; first compound 2.53 µM): 0.342
relative viability (NCI-H520; first compound 8 µM): 0.352
relative viability (NCI-H2087; first compound 0.08 µM): 0.649
relative viability (NCI-H2087; first compound 0.8 µM): 0.729
relative viability (NCI-H2087; first compound 2.53 µM): 0.688
relative viability (NCI-H2087; first compound 8 µM): 0.607
relative viability (NCI-H358; first compound 0.08 µM): 0.554
relative viability (NCI-H358; first compound 0.8 µM): 0.658
relative viability (NCI-H358; first compound 2.53 µM): 0.711
relative viability (NCI-H358; first compound 8 µM): 0.623
relative viability (COR-L 105; first compound 0.08 µM): 0.737
relative viability (COR-L 105; first compound 0.8 µM): 0.611
relative viability (COR-L 105; first compound 2.53 µM): 0.615
relative viability (COR-L 105; first compound 8 µM): 0.573
relative viability (NCI-H661; first compound 0.08 µM): 0.771
relative viability (NCI-H661; first compound 0.8 µM): 0.75
relative viability (NCI-H661; first compound 2.53 µM): 0.737
relative viability (NCI-H661; first compound 8 µM): 0.722
relative viability (NCI-H1792; first compound 0.08 µM): 0.507
relative viability (NCI-H1792; first compound 0.8 µM): 0.42
relative viability (NCI-H1792; first compound 2.53 µM): 0.547
relative viability (NCI-H1792; first compound 8 µM): 0.278
relative viability (NCI-H838; first compound 0.08 µM): 0.736
relative viability (NCI-H838; first compound 0.8 µM): 0.83
relative viability (NCI-H838; first compound 2.53 µM): 0.883
relative viability (NCI-H838; first compound 8 µM): 0.766
relative viability (NCI-H647; first compound 0.08 µM): 0.575
relative viability (NCI-H647; first compound 0.8 µM): 0.67
relative viability (NCI-H647; first compound 2.53 µM): 0.705
relative viability (NCI-H647; first compound 8 µM): 0.678
relative viability (HCC-44; first compound 0.08 µM): 0.989
relative viability (HCC-44; first compound 0.8 µM): 0.959
relative viability (HCC-44; first compound 2.53 µM): 1.01
relative viability (HCC-44; first compound 8 µM): 1
relative viability (LCLC-103H; first compound 0.08 µM): 0.762
relative viability (LCLC-103H; first compound 0.8 µM): 0.796
relative viability (LCLC-103H; first compound 2.53 µM): 0.802
relative viability (LCLC-103H; first compound 8 µM): 0.764
relative viability (201T; first compound 0.08 µM): 0.826
relative viability (201T; first compound 0.8 µM): 0.875
relative viability (201T; first compound 2.53 µM): 0.853
relative viability (201T; first compound 8 µM): 0.902
relative viability (UMC-11; first compound 0.08 µM): 0.338
relative viability (UMC-11; first compound 0.8 µM): 0.389
relative viability (UMC-11; first compound 2.53 µM): 0.352
relative viability (UMC-11; first compound 8 µM): 0.331
relative viability (NCI-H1437; first compound 0.08 µM): 0.611
relative viability (NCI-H1437; first compound 0.8 µM): 0.685
relative viability (NCI-H1437; first compound 2.53 µM): 0.639
relative viability (NCI-H1437; first compound 8 µM): 0.495
relative viability (NCI-H727; first compound 0.08 µM): 0.757
relative viability (NCI-H727; first compound 0.8 µM): 0.621
relative viability (NCI-H727; first compound 2.53 µM): 0.777
relative viability (NCI-H727; first compound 8 µM): 0.633
relative viability (COR-L23; first compound 0.08 µM): 0.373
relative viability (COR-L23; first compound 0.8 µM): 0.352
relative viability (COR-L23; first compound 2.53 µM): 0.348
relative viability (COR-L23; first compound 8 µM): 0.346
relative viability (NCI-H1650; first compound 0.08 µM): 0.775
relative viability (NCI-H1650; first compound 0.8 µM): 0.85
relative viability (NCI-H1650; first compound 2.53 µM): 1.02
relative viability (NCI-H1650; first compound 8 µM): 0.817
relative viability (HCC-15; first compound 0.08 µM): 0.689
relative viability (HCC-15; first compound 0.8 µM): 0.727
relative viability (HCC-15; first compound 2.53 µM): 0.823
relative viability (HCC-15; first compound 8 µM): 0.73
